This note sets out measurements from patent US11021493B2, “1,4-thiazine dioxide and 1,2,4-thiadiazine dioxide derivatives as beta-secretase inhibitors and methods of use” (AMGEN INC., priority 2016, dated 2021).

Test [1] deals with T1, BACE1 (Homo sapiens (Human), UniProt P56817). Kind of test: In vitro enzymatic BACE1 FRET assay. Format: biochemical. The note with it: read-out: BACE1 Enzyme IC50.
Target sequence in this assay (P56817 46-501): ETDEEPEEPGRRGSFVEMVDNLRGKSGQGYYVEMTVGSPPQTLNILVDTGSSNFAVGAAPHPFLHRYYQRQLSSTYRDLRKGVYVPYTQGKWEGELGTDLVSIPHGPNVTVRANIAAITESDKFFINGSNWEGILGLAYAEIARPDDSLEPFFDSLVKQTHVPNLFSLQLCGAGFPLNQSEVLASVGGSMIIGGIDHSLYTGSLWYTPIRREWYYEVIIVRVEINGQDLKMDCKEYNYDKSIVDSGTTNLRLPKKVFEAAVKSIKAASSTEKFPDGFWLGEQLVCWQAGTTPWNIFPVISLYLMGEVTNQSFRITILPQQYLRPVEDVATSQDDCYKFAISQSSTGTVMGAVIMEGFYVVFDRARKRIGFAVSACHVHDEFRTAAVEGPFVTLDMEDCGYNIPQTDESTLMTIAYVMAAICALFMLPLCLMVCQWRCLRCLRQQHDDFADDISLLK
For test [2], the target named is T1, BACE1. Kind of test: In vitro BACE1 cell-based assay (Aβ40 in conditioned medium of cells stably expressing APP, HTRF). As to conditions: Aβ40 in conditioned media after 24 h incubation. For orientation: In TR-FRET formats the signal depends on donor and acceptor labels being close together.
Target sequence in this assay (P56817 46-501, species assumed): as the sequence (P56817 46-501) above
The target of another test is Cathepsin D (CatD) (Homo sapiens (Human), UniProt P07339). Kind of test: In vitro enzymatic Cathepsin D (CatD) FRET assay. As to conditions: read-out: Cat D Enzyme IC50. Format: biochemical.
Another test deals with human recombinant BACE2 (Homo sapiens (Human), UniProt Q9Y5Z0). Kind of test: In vitro enzymatic BACE2 FRET assay. Format: biochemical. The note with it: read-out: BACE2 Enzyme IC50.
human recombinant BACE2, sequence (Q9Y5Z0 63-518): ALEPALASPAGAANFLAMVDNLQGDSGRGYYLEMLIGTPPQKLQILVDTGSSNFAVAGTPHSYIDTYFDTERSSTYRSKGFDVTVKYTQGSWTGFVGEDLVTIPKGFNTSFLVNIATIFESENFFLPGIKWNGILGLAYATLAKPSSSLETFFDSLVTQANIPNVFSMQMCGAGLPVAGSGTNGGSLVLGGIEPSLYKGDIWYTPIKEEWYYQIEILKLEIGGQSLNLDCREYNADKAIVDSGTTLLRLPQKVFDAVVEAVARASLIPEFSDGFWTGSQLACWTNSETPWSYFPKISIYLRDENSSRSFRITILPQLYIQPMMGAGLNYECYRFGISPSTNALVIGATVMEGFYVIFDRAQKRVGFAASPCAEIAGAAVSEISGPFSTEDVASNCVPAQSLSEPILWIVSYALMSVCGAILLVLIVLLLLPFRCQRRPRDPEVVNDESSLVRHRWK

Cathepsin D (CatD), sequence (P07339 65-412, species assumed): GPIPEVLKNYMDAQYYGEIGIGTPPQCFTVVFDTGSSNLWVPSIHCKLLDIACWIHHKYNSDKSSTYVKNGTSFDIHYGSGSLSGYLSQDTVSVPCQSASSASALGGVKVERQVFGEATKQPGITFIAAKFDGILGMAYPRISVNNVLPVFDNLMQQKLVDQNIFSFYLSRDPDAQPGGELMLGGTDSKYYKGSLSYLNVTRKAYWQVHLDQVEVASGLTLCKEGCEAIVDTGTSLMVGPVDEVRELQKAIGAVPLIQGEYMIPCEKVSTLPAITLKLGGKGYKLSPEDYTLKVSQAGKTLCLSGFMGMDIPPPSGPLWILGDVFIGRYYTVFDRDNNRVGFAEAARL

As to `COC[C@H](C)Oc1cnc(/C(F)=C/c2ccc(F)c([C@]3(C)CS(=O)(=O)N(C)C(N)=N3)c2)cn1` [Example 164, (R)-3-amino-5-(2-fluoro-5-((Z)-2-fluoro-2-(5-(((S)-1-methoxypropan-2-yl)oxy)pyrazin-2-yl)vinyl)phenyl)-2,5-dimethyl-5,6-dihydro-2H-1,2,4-thiadiazine 1,1-dioxide], the IC50 on BACE1 [1] came out at 0.011 µM; at BACE1 [2], 0.011 µM; at Cathepsin D (CatD) it was 107 µM; at human recombinant BACE2 it was 0.108 µM.
With `Cc1cnc(COc2cnc(/C(F)=C/c3ccc(F)c([C@@]4(C)N=C(N)N(C)S(=O)(=O)C45CC5)c3)cn2)o1` [Example 169, (8R)-8-(2-fluoro-5-((Z)-2-fluoro-2-(5-((5-methyl-1,3-oxazol-2-yl)methoxy)-2-pyrazinyl)ethenyl)phenyl)-5,8-dimethyl-4-thia-5,7-diazaspiro[2.5]oct-6-en-6-amine 4,4-dioxide], the half-maximal inhibitory concentration (IC50) was 0.066 µM on BACE1 [1], 0.124 µM against BACE1 [2], 698 µM at Cathepsin D (CatD) and 0.907 µM on human recombinant BACE2.
Turning to `CC1(C)C(N)=N[C@](C)(c2cc(/C=C(\F)c3cnc(C#N)cn3)ccc2F)CS1(=O)=O` [Example 170, (R,Z)-5-(2-(3-(5-amino-3,6,6-trimethyl-1,1-dioxido-3,6-dihydro-2H-1,4-thiazin-3-yl)-4-fluorophenyl)-1-fluorovinyl)pyrazine-2-carbonitrile], the IC50 at BACE1 [1] is 0.002 µM; on BACE1 [2], 0.005 µM; on Cathepsin D (CatD) it was 645 µM; at human recombinant BACE2 it was 0.017 µM.
For `C#C[C@H](C)Oc1cnc(/C(F)=C/c2ccc(F)c([C@]3(C)CS(=O)(=O)N(C)C(N)=N3)c2)cn1` [Example 171, (R)-3-amino-5-(5-((Z)-2-(5-((S)-but-3-yn-2-yloxy)pyrazin-2-yl)-2-fluorovinyl)-2-fluorophenyl)-2,5-dimethyl-5,6-dihydro-2H-1,2,4-thiadiazine 1,1-dioxide], the 50% inhibitory concentration (IC50) on BACE1 [1] worked out at 0.005 µM; against BACE1 [2] it was 0.006 µM; on Cathepsin D (CatD), 17 µM; at human recombinant BACE2 it was 0.142 µM.
Take `COC(C)COc1cnc(/C(F)=C/c2ccc(F)c([C@]3(C)CS(=O)(=O)N(C)C(N)=N3)c2)cn1` (stereo partly drawn) [Example 172, (R)-3-amino-5-(2-fluoro-5-((Z)-2-fluoro-2-(5-(2-methoxypropoxy)pyrazin-2-yl)vinyl)phenyl)-2,5-dimethyl-5,6-dihydro-2H-1,2,4-thiadiazine 1,1-dioxide]: the half-inhibitory concentration (IC50) was 0.025 µM on BACE1 [1], 0.023 µM at BACE1 [2], 67.6 µM on Cathepsin D (CatD) and 0.084 µM on human recombinant BACE2.
Consider `Cc1nnc(COc2cnc(/C(F)=C/c3ccc(F)c([C@]4(C)CS(=O)(=O)N(C)C(N)=N4)c3)cn2)o1` [Example 173, (R,Z)-3-amino-5-(2-fluoro-5-(2-fluoro-2-(5-((5-methyl-1,3,4-oxadiazol-2-yl)methoxy)pyrazin-2-yl)vinyl)phenyl)-2,5-dimethyl-5,6-dihydro-2H-1,2,4-thiadiazine 1,1-dioxide], for which the IC50 on BACE1 [1] is 0.007 µM; against BACE1 [2], 0.009 µM; on Cathepsin D (CatD) it was 78.1 µM; at human recombinant BACE2, 0.103 µM.
Turning to `Cc1noc(COc2cnc(/C(F)=C/c3ccc(F)c([C@]4(C)CS(=O)(=O)C(C)(C)C(N)=N4)c3)cn2)n1` [Example 175, (R,Z)-5-amino-3-(2-fluoro-5-(2-fluoro-2-(5-((3-methyl-1,2,4-oxadiazol-5-yl)methoxy)pyrazin-2-yl)vinyl)phenyl)-3,6,6-trimethyl-3,6-dihydro-2H-1,4-thiazine 1,1-dioxide], the IC50 turned out to be 0.088 µM on BACE1 [1], 0.053 µM at BACE1 [2], 124 µM on Cathepsin D (CatD) and 0.225 µM at human recombinant BACE2.
For the compound `Cc1nnc(COc2cnc(/C(F)=C/c3ccc(F)c([C@]4(C)CS(=O)(=O)C(C)(C)C(N)=N4)c3)cn2)o1` [Example 176, (R,Z)-5-amino-3-(2-fluoro-5-(2-fluoro-2-(5-((5-methyl-1,3,4-oxadiazol-2-yl)methoxy)pyrazin-2-yl)vinyl)phenyl)-3,6,6-trimethyl-3,6-dihydro-2H-1,4-thiazine 1,1-dioxide], the half-inhibitory concentration (IC50) on BACE1 [1] came out at 0.111 µM; on BACE1 [2], 0.056 µM; at Cathepsin D (CatD), 148 µM; at human recombinant BACE2 it was 0.409 µM.
On to `CN1C(N)=N[C@](C)(c2cc(/C=C(\F)c3cnc(OCC4COC4)cn3)ccc2F)CS1(=O)=O` [Example 179, (R,Z)-3-amino-5-(2-fluoro-5-(2-fluoro-2-(5-(oxetan-3-ylmethoxy)pyrazin-2-yl)vinyl)phenyl)-2,5-dimethyl-5,6-dihydro-2H-1,2,4-thiadiazine 1,1-dioxide], for which the half-inhibitory concentration (IC50) at BACE1 [1] was 0.176 µM; against BACE1 [2], 0.12 µM; on Cathepsin D (CatD), 43 µM; on human recombinant BACE2 it was 0.217 µM.
On the same counts, the results for `CN1C(N)=N[C@](C)(c2cc(/C=C(\F)c3ccc(C#N)cn3)ccc2F)C(C)(C)S1(=O)=O` [Example 180, (R,Z)-6-(2-(3-(3-amino-2,5,6,6-tetramethyl-1,1-dioxido-5,6-dihydro-2H-1,2,4-thiadiazin-5-yl)-4-fluorophenyl)-1-fluorovinyl)nicotinonitrile] are 0.007 µM, 0.026 µM, 93.7 µM and 0.075 µM.
With `CN1C(N)=N[C@](C)(c2cc(/C=C(\F)c3cnc(Cl)cn3)ccc2F)C(C)(C)S1(=O)=O` [Example 182, (R,Z)-3-amino-5-(5-(2-(5-chloropyrazin-2-yl)-2-fluorovinyl)-2-fluorophenyl)-2,5,6,6-tetramethyl-5,6-dihydro-2H-1,2,4-thiadiazine 1,1-dioxide], the IC50 turned out to be 0.039 µM at BACE1 [1], 0.318 µM against BACE1 [2], 217 µM on Cathepsin D (CatD) and 0.076 µM at human recombinant BACE2.
On the same counts, the results for `CC1(C)C(N)=N[C@](C)(c2cc(/C=C(\F)c3cc4c(cn3)OCCO4)ccc2F)CS1(=O)=O` [Example 184, (R,Z)-5-amino-3-(5-(2-(2,3-dihydro-[1,4]dioxino[2,3-c]pyridin-7-yl)-2-fluorovinyl)-2-fluorophenyl)-3,6,6-trimethyl-3,6-dihydro-2H-1,4-thiazine 1,1-dioxide] are 0.296 µM, 0.277 µM, 335 µM and 0.79 µM.
Regarding `CC#CCOc1cnc(/C(F)=C/c2ccc(F)c([C@@]3(C)N=C(N)N(C)S(=O)(=O)C3(C)C)c2)cn1` [Example 185, (R,Z)-3-amino-5-(5-(2-(5-(but-2-yn-1-yloxy)pyrazin-2-yl)-2-fluorovinyl)-2-fluorophenyl)-2,5,6,6-tetramethyl-5,6-dihydro-2H-1,2,4-thiadiazine 1,1-dioxide], the concentration for half-maximal inhibition (IC50) was 0.002 µM on BACE1 [1], 0.005 µM at BACE1 [2], 259 µM at Cathepsin D (CatD) and 0.159 µM on human recombinant BACE2.
For the compound `CN1C(N)=N[C@](C)(c2cc(/C=C(\F)c3cc4c(cn3)OCCO4)ccc2F)CS1(=O)=O` [Example 187, (R,Z)-3-amino-5-(5-(2-(2,3-dihydro-[1,4]dioxino[2,3-c]pyridin-7-yl)-2-fluorovinyl)-2-fluorophenyl)-2,5-dimethyl-5,6-dihydro-2H-1,2,4-thiadiazine 1,1-dioxide], the half-inhibitory concentration (IC50) on BACE1 [1] was determined as 0.172 µM; against BACE1 [2] it was 0.108 µM; at Cathepsin D (CatD), 165 µM; on human recombinant BACE2 it was 0.078 µM.
As for `CC1(C)C(N)=N[C@](CF)(c2cc(/C=C(\F)c3ccc(C#N)cn3)ccc2F)CS1(=O)=O` [Example 188, (S,Z)-6-(2-(3-(5-amino-3-(fluoromethyl)-6,6-dimethyl-1,1-dioxido-3,6-dihydro-2H-1,4-thiazin-3-yl)-4-fluorophenyl)-1-fluorovinyl)nicotinonitrile], the IC50 at BACE1 [1] was 0.013 µM; at BACE1 [2], 0.222 µM; at Cathepsin D (CatD), 155 µM; at human recombinant BACE2, 0.057 µM.
On to `CC1(C)C(N)=N[C@](CF)(c2cc(/C=C(\F)c3cnc(Cl)cn3)ccc2F)CS1(=O)=O` [Example 189, (S,Z)-5-amino-3-(5-(2-(5-chloropyrazin-2-yl)-2-fluorovinyl)-2-fluorophenyl)-3-(fluoromethyl)-6,6-dimethyl-3,6-dihydro-2H-1,4-thiazine 1,1-dioxide], for which the half-maximal inhibitory concentration (IC50) was 0.06 µM on BACE1 [1], 2.22 µM against BACE1 [2], 61.8 µM at Cathepsin D (CatD) and 0.059 µM at human recombinant BACE2.
`C#CCOc1cnc(/C(F)=C/c2ccc(F)c([C@]3(CF)CS(=O)(=O)C(C)(C)C(N)=N3)c2)cn1` [Example 190, (S,Z)-5-amino-3-(2-fluoro-5-(2-fluoro-2-(5-(prop-2-yn-1-yloxy)pyrazin-2-yl)vinyl)phenyl)-3-(fluoromethyl)-6,6-dimethyl-3,6-dihydro-2H-1,4-thiazine 1,1-dioxide]: the IC50 stood at 0.006 µM on BACE1 [1], 0.074 µM against BACE1 [2], 104 µM at Cathepsin D (CatD) and 0.274 µM at human recombinant BACE2.
In the case of `CC1(C)C(N)=N[C@](C)(c2cc(/C=C(\F)c3cnc(Cl)cn3)ccc2F)C(F)(F)S1(=O)=O` [Example 191, (R,Z)-5-amino-3-(5-(2-(5-chloropyrazin-2-yl)-2-fluorovinyl)-2-fluorophenyl)-2,2-difluoro-3,6,6-trimethyl-3,6-dihydro-2H-1,4-thiazine 1,1-dioxide], the half-maximal inhibitory concentration (IC50) on BACE1 [1] is 0.128 µM; at BACE1 [2] it was 5.09 µM; at Cathepsin D (CatD), 62.2 µM; at human recombinant BACE2 it was 0.052 µM.
As to `CC1(C)C(N)=N[C@](C)(c2cc(/C=C(\F)c3ccc(C#N)cn3)cc(F)c2F)CS1(=O)=O` [Example 192, (R,Z)-6-(2-(3-(5-amino-3,6,6-trimethyl-1,1-dioxido-3,6-dihydro-2H-1,4-thiazin-3-yl)-4,5-difluorophenyl)-1-fluorovinyl)nicotinonitrile], the IC50 stood at 0.012 µM on BACE1 [1], 0.035 µM against BACE1 [2], 76.1 µM on Cathepsin D (CatD) and 0.046 µM on human recombinant BACE2.

By IC50 is commonly meant the concentration that inhibits the measured activity by half.
